The source of these data is patent US10683286B2, “Furazan-3-carboxylic acid derivatives and use thereof in treatment of cancer” (FREIE UNIVERSITAET BERLIN, priority 2016, dated 2020).

One series concerns the target T1, STAT5b-SH2 domain (Homo sapiens, UniProt P51692).
T1 sequence (P51692 136-703): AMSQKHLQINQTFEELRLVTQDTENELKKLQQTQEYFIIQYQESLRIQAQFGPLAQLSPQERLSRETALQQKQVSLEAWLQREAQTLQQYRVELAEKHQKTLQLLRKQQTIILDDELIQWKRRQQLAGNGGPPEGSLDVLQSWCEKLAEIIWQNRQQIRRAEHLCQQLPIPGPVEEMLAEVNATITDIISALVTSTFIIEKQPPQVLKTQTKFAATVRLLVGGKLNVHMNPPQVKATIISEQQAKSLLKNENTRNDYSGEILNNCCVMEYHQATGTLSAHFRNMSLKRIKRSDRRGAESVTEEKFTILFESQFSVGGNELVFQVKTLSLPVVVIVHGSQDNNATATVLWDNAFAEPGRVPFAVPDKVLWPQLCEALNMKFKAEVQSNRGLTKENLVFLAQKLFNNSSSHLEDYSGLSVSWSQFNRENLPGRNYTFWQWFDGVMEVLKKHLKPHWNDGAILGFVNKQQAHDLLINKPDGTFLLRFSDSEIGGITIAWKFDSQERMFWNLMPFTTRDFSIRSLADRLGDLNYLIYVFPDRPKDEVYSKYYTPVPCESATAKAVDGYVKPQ
As to the kind of experiment: Competitive fluorescence polarization (FP) assay, STAT5b-SH2 domain. For orientation: Polarisation of emitted light reports the rotation of a fluorescent probe.

Series [1] has as its target full length human STAT3 protein (Homo sapiens, UniProt P40763). Description: FP specificity assay, STAT3. Format: binding. To be noted: concentrations up to 1 mM. From the text:
Cell Lines and Culture Condition

In series [2] the target is T2, protein tyrosine phosphatase SHP2 (Homo sapiens, UniProt Q06124).
T2 sequence (Q06124 1-593): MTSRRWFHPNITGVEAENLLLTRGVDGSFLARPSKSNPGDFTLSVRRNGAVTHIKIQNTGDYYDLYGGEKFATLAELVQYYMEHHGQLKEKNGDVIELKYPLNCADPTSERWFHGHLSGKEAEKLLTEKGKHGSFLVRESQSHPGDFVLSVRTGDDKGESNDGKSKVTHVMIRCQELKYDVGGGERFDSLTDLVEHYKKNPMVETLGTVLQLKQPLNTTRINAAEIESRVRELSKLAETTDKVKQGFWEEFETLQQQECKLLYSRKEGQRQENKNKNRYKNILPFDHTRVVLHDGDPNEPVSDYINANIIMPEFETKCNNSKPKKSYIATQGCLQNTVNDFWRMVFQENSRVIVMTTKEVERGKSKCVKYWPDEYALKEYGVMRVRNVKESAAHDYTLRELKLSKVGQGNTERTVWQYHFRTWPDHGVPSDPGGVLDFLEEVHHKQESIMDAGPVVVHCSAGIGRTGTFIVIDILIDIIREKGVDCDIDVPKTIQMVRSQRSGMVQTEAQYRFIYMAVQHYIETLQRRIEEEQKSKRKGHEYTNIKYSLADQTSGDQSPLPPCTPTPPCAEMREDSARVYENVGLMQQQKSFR
Description: SHP2 inhibition (specificity). Format: biochemical. The conditions noted are these: concentrations up to 1 mM.

In series [3] the test system is phosphorylated STAT5 dimers. Description: ELISA-based STAT5 transcription factor assay of (STAT5)2-DNA complexes. Format: biochemical, murine. To be noted: cell-free, nuclear extract incubated 1 h at room temperature. As to the method: As an additional confirmation for the mode of action of the STAT5-binding fragments, we finally investigated their potential to interfere directly with the binding of phosphorylated STAT5 dimers to the target DNA sequences of the transcription factor. […] (FIGS. 6C, D) Nuclear extracts and cytoplasmic extracts were prepared from BaF3 FLT3-ITD cells using the Nuclear Extraction kit (Active Motif, Carlsbad, Calif., USA) according to the manufacturer's protocol. STAT5 activity was determined in nuclear protein extracts (20 μg) by the TransAM STATs family kits from Active Motif (Carlsbad, Calif.). All assays were performed following the manufactory instruction after the nuclear protein extraction.
A general note: ELISA stands for enzyme-linked immunosorbent assay.

The next series relates to STAT5 dimer. Description: Gel shift assay (EMSA) of STAT5 DNA binding. Format: biochemical, murine. The conditions noted are these: BaF3/FLT3-ITD nuclear extract. As to the method: Nuclear extracts and cytoplasmic extracts were prepared from BaF3 FLT3-ITD cells using the Nuclear Extraction kit (Active Motif, Carlsbad, Calif., USA) according to the manufacturer's protocol.
A gel shift assay was conducted using a double-stranded, biotin-labeled oligonucleotide probe containing the consensus binding site for STAT5 (sense strand, 5′-[…]-3′), using the Gelshift Chemiluminescent EMSA kit (Active Motif) according to the manufacturer's protocol. Protein-DNA complexes were resolved on a nondenaturing polyacrylamide gel, transferred to a positively charged nylon membrane, and cross-linked to a membrane using the UV-light cross-linker. After blocking, the membrane was incubated with blocking buffer containing streptavidin conjugated to HRP. After washing, protein-DNA complexes were detected using a chemi-luminescent substrate (Active Motif).
Background: Mobility shift assays separate free from complexed probe on a gel.

The test system of series [4] is non-STAT5-dependent cell lines. As to the kind of experiment: Cytotoxicity on non-STAT5-dependent cell lines. The conditions noted are these: up to 500 μM. Format: cell-based. Here is the method:
Carol Stocking (University Hospital Hamburg-Eppendorf). […] Cells were incubated at 37° C., 5% CO2 atmosphere.
(§1) The effect of compounds on cell lines was evaluated by In Vitro Toxicology Assay Kit, Resazurin based with indicator dye Alamar Blue (Sigma). Adherent and suspension cells were plated at 5×10^3 per well and 1×10^4 per well respectively in triplicate in 96-well plates and incubated in medium containing 10% FBS. For adherent cell, the complete medium was replaced after 24 hours and incubated with test medium containing vehicle control or serial concentration of compounds for 48 hours at 37° C. The remaining wells in the periphery of the microtiter well plate were added PBS and not used to avoid evaporation effects. Alamar Blue was then added, and all plates were incubated at 37° C., and a colorimetric change was measured according to the methods provided by the provided protocol.

Another series relates to STAT5. As to the kind of experiment: STAT5 phosphorylation, Western blot in BaF3/FLT3-ITD cells. To be noted: for IC50: read-out: IC50 of STAT5 phosphorylation inhibition, BaF3/FLT3-ITD cells.
Series [5] deals with Pim1 kinase, cyclin D1 and Bcl-xl. As to the kind of experiment: Expression of transcriptional targets of STAT5, Western blot in BaF3/FLT3-ITD cells. The conditions noted are these: BaF3/FLT-ITD cells, after 6 h. Format: cell-based, murine. From the text:
(FIGS. 7A, B). Next, the functional effects of STAT5 inhibitors (6) and (15) on cellular transcription were investigated. For the purpose, the expression of three transcriptional targets of STAT5, namely Pim1 kinase, cyclin D1 and Bcl-xl, which play essential roles in cell cycle progression and survival, was monitored by Western Blotting (FIGS. 6A, B).

In another series the test system is BaF3/FLT3-ITD cells. As to the kind of experiment: Cell proliferation assay (Alamar blue). To be noted: 48 h, Alamar blue, FLT3-ITD cells. Format: cell-based, murine. Here is the method: Having proven the functional inhibition of STAT5 as a transcription factor, the effect of STAT5 inhibitors on the proliferation of cancer cells carrying the common FLT3-ITD mutation was investigated. Cells were incubated for 48 h and cell proliferation was quantified by the Alamar blue assay (FIG. 5). […] For comparison, we have tested both compounds on non-STAT5-dependent cell lines and the cytotoxicity effect were negligible up to 500 μM. (FIG. S9).
as §1

A further series deals with T3, STAT3 (Mus musculus, UniProt P42227).
T3 construct: endogenous in cells; context BaF3/FLT3-ITD
T3 sequence (P42227 whole entry): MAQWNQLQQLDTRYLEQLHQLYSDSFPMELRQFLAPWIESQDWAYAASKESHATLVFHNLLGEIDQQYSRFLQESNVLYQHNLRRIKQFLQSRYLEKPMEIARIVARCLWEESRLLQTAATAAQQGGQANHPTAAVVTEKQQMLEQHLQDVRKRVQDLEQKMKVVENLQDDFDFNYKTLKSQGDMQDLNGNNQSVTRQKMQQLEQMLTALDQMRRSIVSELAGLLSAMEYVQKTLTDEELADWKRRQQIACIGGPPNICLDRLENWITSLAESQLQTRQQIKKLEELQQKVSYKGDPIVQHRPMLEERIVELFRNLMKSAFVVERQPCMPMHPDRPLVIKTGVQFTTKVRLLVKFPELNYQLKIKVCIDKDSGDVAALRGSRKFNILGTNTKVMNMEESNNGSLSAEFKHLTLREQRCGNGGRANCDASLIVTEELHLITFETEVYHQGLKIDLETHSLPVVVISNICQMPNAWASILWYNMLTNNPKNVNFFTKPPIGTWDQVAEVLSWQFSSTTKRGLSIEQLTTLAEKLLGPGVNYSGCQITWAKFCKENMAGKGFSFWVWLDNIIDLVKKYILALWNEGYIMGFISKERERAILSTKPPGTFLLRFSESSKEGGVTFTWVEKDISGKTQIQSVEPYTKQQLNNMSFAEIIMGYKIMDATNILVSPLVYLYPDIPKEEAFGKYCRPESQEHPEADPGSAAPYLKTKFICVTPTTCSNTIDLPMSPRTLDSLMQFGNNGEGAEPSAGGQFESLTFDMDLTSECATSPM
Description: STAT3 phosphorylation and expression in cells. Format: cell-based. The conditions noted are these: selectivity in cells.

The next series in a line: Solubility. Format: physicochemical. The conditions noted are these: compared to the 5-aryl-substituted tetrazole.

“Also recorded” adds a separate entry of the source. Where two headings read alike, the source gives them in different places.

Chain of full length human STAT3 protein (P40763 whole entry): as the sequence (P42227 whole entry) above, with D760E counted along it
Description for STAT5b-SH2 domain: The ChemBioNet fragment collection composed in accordance with the substructure composition of the World Drug Index (WDI) was screened both for enhancing and inhibiting fragments of the phosphopeptide-STAT5 interaction.
The clone for Stat5b expression was kindly provided by Thorsten Berg (MPI, Martinsried). Expression of that truncated version of Stat5b (aa 136-703) cloned into a modified pQE70, with N-terminal MBP-tag and C-terminal His-tag was conducted on autoinduction medium (overnight express/Novagen). Cells were grown to an optical density (O.D.) of 0.3 at 37° C., then the temperature was reduced to 20° C. for further 48 h of expression. […] The protein was purified by Ni-chelating chromatography followed by gel filtration (Superdex 200/10 mM HEPES pH 7.8, 100 mM NaCl, 1 mM EDTA, 1 mM DTT, 10% glycerol). A yield of 15 mg MBP-Stat5b-His per liter of culture was obtained and aliquots (200 μl of 3.2 mg/ml) were quick-frozen and stored at −80° C., ready for use.
17000 compounds from the (FMP) ChemBioNet library were tested in a competitive-based fluorescence polarization (FP) assay to investigate the ability of compounds to bind to STAT5b-SH2 domain by displacing respective fluorophore-labeled peptides (5-carboxyfluorescein-GY (PO3H2) LSLPPW-NH2). The peptide purity was >95% and the screening were performed at room temperature. The final concentration of buffer components used was 10 mM HEPES (pH 7.5), 1 mM EDTA, 0.1% Igepal CA-630, 50 mM NaCl, and 5% DMSO. The final concentration of protein used was at 65 nM which correspond to the dissociation constants (Kd) for the individual protein-peptide interactions in assay buffer. The protein was first added to the black 384 well plate (Corning 3676) followed by test compounds and fluorophore-labeled peptide. The plates were centrifuged, and measured using Safire^2 well plate reader (Tecan, Crailsheim, Germany) after 15 minutes incubation at room temperature. […] For the analysis of the data GraphPad Prism 5 was used. Ligand efficiencies (LE) were calculated using equation derived as followed. LE=−ΔG°/HA with (ΔG°) is the standard free energy of binding in KJ and HA is the number of non-hydrogen atoms.

Regarding `O=C(O)c1nonc1NCn1cnnn1` [Compound 3, 4-((1H-Tetrazol-1-yl)-methylamino)-furazan-3-carboxylic Acid], on STAT5b-SH2 domain, affinity was put at a Ki of 1.4 ± 0.5 µM and the ligand efficiency was 2.23 kJ/mol per non-hydrogen atom. Also, the LE on STAT5b-SH2 domain (Table 1, ligand efficiency) was 2.23 kJ/mol* atom#. Also, in series [1], the “binding to the SH2 domain of STAT3” value is listed as “no binding”. Moreover, the “inhibition of SHP2” value in series [2] was “No inhibition”. Also, the “inhibition of protein-dimer-DNA complex formation” value in [3] was “more potent inhibitor than compounds (15) and (6)”. Also, the “STAT5 dimer DNA-binding activity” value in the series on STAT5 dimer is listed as “inhibits”.

With `CC(=O)OC(C)OC(=O)c1nonc1NCn1cnnn1` (centres unmarked) [Compound 15], in series [4], the cytotoxicity effect entry was “negligible”. Moreover, at STAT5b-SH2 domain, the Kd – broadly, the concentration at which binding is half-saturated – worked out at 14 µM; the Ki (commonly the dissociation constant of the complex between target and ligand, obtained from inhibition or displacement) was determined as 4.6 ± 1.7 µM. The same molecule gave an LE on STAT5b-SH2 domain (Table 1, ligand efficiency) of 1.45 kJ/mol* atom#. In addition, the “tyrosine phosphorylation of STAT5, dose dependence” value in the series with STAT5 (6 h treatment, BaF3/FLT3-ITD) is reported as “decrease the tyrosine phosphorylation of STAT5 in a dose dependent manner”. Further, the “overall expression of endogenous STAT5” value with STAT5 (BaF3/FLT3-ITD) is given as “no effect”. Further, in the series on STAT5 (6 h), the IC50 (usually the concentration that inhibits the measured activity by half) is 68.9 µM. Moreover, the “Pim1, cyclin D1 and Bcl-xL expression” value in series [5] was “dose dependent reduction”. Further, the “inhibition of cell proliferation” value with BaF3/FLT3-ITD cells is “clear dose-dependent inhibition”. Moreover, on STAT3, the STAT3 phosphorylation result is given as “negligible effects” and the “endogenous STAT3 expression” value is listed as “negligible effects”.

Turning to `O=C(O)c1nonc1NCn1nnnc1Cc1ccccc1` [Compound 30, 4-((5-Benzyl-1H-tetrazol-1-yl)-methylamino)-furazan-3-carboxylic Acid], in the series “Solubility”, the solubility result is on record as “strongly improved solubility”. On STAT5b-SH2 domain, this molecule yielded a Ki of 8.6 ± 2 µM and an LE of 1.31. In addition, the “reduction of STAT5 phosphorylation” value in the series on STAT5 (50 μM, 6 h, BaF3/FLT3-ITD) is reported as “clear reduction; also recorded: reduces STAT5 phosphorylation significantly”. Also, the IC50 with STAT5 (6 h) is 30.8 µM.
